The values that follow come from ChEMBL document CHEMBL2176923, “Discovery of (5S,6S,9R)-5-amino-6-(2,3-difluorophenyl)-6,7,8,9-tetrahydro-5H-cyclohepta[b]pyridin-9-yl 4-(2-oxo-2,3-dihydro-1H-imidazo[4,5-b]pyridin-1-yl)piperidine-1-carboxylate (BMS-927711): an oral calcitonin gene-related peptide (CGRP) antagonist in clinical trials for treating migraine” (J Med Chem, 2012).

By Ki is commonly meant the dissociation constant of the complex between target and ligand, obtained from inhibition or displacement. For orientation: IC50 means the midpoint of a concentration-inhibition curve. Usually bioavailability stands for the share of a dose that reaches the circulation, judged against a reference dose that is usually intravenous. The term inhibition in vivo denotes the drop in the measured response relative to a control, in per cent. By half-life is commonly meant how long it takes for the measured level to halve. In general, solubility refers to the dissolved amount per volume that the medium holds. Broadly, the fraction unbound is free concentration divided by total concentration. The EC50 is the concentration needed to bring the measured effect to its halfway point.

In brackets after ≈: the same amount, converted by molar mass. Activity calls are given as the source filed them. The calls are words filed in the database; no cut-off is given here.

Data set [1] deals with T1, Calcitonin gene-related peptide type 1 receptor (Homo sapiens, UniProt O60894+Q16602). The data set can be described thus: Displacement of [125I]-CGRP from CGRP receptor in human SK-N-MC cells after 2 hrs by gamma scintillation counter analysis. The format is cell-based. (Loss of bound radioactivity is the signal in a displacement assay; it reports binding, not function.)

Another data set is filed under the species Homo sapiens. The experiment in a line: Toxicity in human up to 600 mg. It counts as organism-based. Conditions: in vivo.
For another data set, the system named is Salmonella typhimurium. The experiment in a line: Genotoxicity in Salmonella typhimurium by Ames test. It counts as toxicity, organism-based. The note with it: salmonella enterica subsp. enterica serovar typhimurium.
Data set [2] addresses Voltage-gated L-type calcium channel (Homo sapiens, UniProt Q13936+Q13698+Q01668+O60840). The data set can be described thus: Inhibition of L type calcium channel expressed in HEK293 cells at 10 to 30 uM. It counts as cell-based.
The next data set has as its system HEK293. The experiment in a line: Inhibition of L type sodium channel expressed in HEK293 cells at 10 to 30 uM. The format is cell-based. Conditions: Homo sapiens.
Data set [3] addresses Voltage-gated inwardly rectifying potassium channel KCNH2 (Homo sapiens, UniProt Q12809). The experiment in a line: Inhibition of human ERG alpha subunit expressed in HEK293 cells at 10 to 30 uM. It counts as cell-based.
Another data set addresses Cytochrome P450 2E1 (Homo sapiens, UniProt P05181). The experiment in a line: Inhibition of human recombinant CYP2E1 after 45 mins by fluorescence assay. The format is ADME.
The next data set concerns the target T2, Cytochrome P450 2B6 (Homo sapiens, UniProt P20813).
T2 sequence (P20813 whole entry): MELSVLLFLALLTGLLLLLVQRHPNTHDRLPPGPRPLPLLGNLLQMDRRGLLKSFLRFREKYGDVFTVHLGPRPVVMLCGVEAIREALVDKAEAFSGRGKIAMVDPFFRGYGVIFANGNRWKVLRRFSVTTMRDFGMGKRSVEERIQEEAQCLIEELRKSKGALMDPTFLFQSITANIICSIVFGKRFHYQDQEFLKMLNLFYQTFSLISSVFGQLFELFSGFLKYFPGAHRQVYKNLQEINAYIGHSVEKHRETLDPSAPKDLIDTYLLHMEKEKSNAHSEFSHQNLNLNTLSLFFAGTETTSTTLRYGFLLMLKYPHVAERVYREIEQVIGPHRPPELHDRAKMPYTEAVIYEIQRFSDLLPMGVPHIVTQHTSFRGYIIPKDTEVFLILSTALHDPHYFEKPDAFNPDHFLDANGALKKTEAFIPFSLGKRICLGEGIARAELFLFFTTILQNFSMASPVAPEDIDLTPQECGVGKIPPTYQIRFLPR
The experiment in a line: Inhibition of human recombinant CYP2B6 after 45 mins by fluorescence assay. The format is ADME.

The target of another data set is T3, Cytochrome P450 2A6 (Homo sapiens, UniProt P11509).
T3 sequence (P11509 whole entry): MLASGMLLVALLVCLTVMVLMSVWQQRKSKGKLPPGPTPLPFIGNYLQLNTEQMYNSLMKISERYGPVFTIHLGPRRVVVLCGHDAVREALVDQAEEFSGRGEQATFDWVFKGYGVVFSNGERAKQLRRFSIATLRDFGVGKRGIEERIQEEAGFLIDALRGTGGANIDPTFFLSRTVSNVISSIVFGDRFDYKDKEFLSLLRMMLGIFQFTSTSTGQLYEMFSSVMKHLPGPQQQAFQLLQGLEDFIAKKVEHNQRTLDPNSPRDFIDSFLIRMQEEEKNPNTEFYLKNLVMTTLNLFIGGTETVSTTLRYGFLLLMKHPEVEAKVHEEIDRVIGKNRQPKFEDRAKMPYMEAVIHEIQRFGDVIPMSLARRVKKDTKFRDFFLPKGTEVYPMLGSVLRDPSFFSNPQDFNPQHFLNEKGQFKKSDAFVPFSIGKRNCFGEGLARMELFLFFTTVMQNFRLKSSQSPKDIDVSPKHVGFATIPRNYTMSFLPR
The experiment in a line: Inhibition of human recombinant CYP2A6 after 45 mins by fluorescence assay. The format is ADME.

The target of a further data set is Cytochrome P450 2D6 (Homo sapiens, UniProt P10635). The experiment in a line: Inhibition of human recombinant CYP2D6 using 3-[2-(N,N-diethyl-Nmethylamino) ethyl]-7-methoxy-4-methylcoumarin as substrate after 45 mins by fluorescence assay. The format is ADME.
The next data set deals with Cytochrome P450 2C9 (Homo sapiens, UniProt P11712). The data set can be described thus: Inhibition of human recombinant CYP2C9 using 7-methoxy-4-trifluoromethylcoumarin as substrate after 45 mins by fluorescence assay. The format is ADME.
In a further data set the target is Cytochrome P450 2C19 (Homo sapiens, UniProt P33261). The experiment in a line: Inhibition of human recombinant CYP2C19 using 3-cyano-7-ethoxycoumarine as substrate after 45 mins by fluorescence assay. The format is ADME.
Another data set concerns the target T4, Cytochrome P450 1A2 (Homo sapiens, UniProt P05177).
T4 sequence (P05177 whole entry): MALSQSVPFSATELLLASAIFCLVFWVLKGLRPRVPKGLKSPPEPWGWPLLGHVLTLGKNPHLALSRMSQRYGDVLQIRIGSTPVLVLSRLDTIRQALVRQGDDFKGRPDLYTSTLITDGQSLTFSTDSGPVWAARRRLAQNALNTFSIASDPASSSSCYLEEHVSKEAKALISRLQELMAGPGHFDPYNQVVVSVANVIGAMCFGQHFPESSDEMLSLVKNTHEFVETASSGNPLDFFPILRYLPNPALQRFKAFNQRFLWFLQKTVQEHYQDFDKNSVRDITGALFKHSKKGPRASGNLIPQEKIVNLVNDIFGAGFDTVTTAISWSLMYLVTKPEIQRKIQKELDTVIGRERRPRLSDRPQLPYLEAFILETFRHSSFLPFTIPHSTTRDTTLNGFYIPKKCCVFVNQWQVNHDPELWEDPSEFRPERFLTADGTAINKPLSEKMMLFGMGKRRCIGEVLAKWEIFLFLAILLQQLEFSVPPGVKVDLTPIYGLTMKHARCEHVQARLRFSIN
The data set can be described thus: Inhibition of human recombinant CYP1A2 using 3-cyano-7-ethoxycoumarine as substrate after 45 mins by fluorescence assay. The format is ADME.

Data set [4] in a line: Oral bioavailability in overnight fasted cynomolgus monkey at 10 mg/kg administered as suspension of crystalline free base. It counts as ADME, organism-based, Macaca fascicularis. Conditions: in vivo.
Data set [5] can be described thus: Oral bioavailability in overnight fasted cynomolgus monkey at 10 mg/kg administered as solution. The format is ADME, organism-based, Macaca fascicularis. Conditions: in vivo.
A short description of data set [6]: Oral bioavailability in fasted Sprague-Dawley rat at 10 mg/kg administered as solution. Conditions: in vivo. The format is ADME, organism-based.
A short description of data set [7]: Plasma concentration in Harlan marmoset at 7 mg/kg, sc after 60 to 105 mins. Details: dose 7 mg/kg, route subcutaneous. The format is ADME, organism-based, Callithrix jacchus. Conditions: in vivo.
Data set [8] is described as follows: Plasma concentration in Harlan marmoset at 7 mg/kg, sc at 15 mins. It counts as ADME, organism-based, Callithrix jacchus. Also on record: dose 7 mg/kg, route subcutaneous.
For data set [9], the system named is Callithrix jacchus. The experiment in a line: Antagonist activity at CGRP receptor in Harlan marmoset assessed as inhibition of CGRP-induced facial blood flow at 7 mg/kg, sc administered 45 mins interval for 2 hrs post alphaCGRP challenge measured at 15 mins by laser droppler flowmetry relative to control. The format is functional. Conditions: route subcutaneous.

Data set [10] deals with Callithrix jacchus. The experiment in a line: Antagonist activity at CGRP receptor in Harlan marmoset assessed as inhibition of alphaCGRP-induced facial blood flow at 7 mg/kg, sc administered 45 mins interval for 2 hrs post alphaCGRP challenge measured after 60 to 105 mins by laser droppler flowmetry relative to control. The format is functional. The note with it: route subcutaneous.

Data set [11] is described as follows: Permeability of the compound at 100 uM at pH 7.4 after 4 hrs by PAMPA. Conditions: read-out: permeability. It counts as ADME. (The PAMPA barrier holds no transporters, so it reflects passive diffusion.)
A short description of data set [12]: Permeability of the compound at 100 uM at pH 5.5 after 4 hrs by PAMPA. It counts as ADME. The note with it: read-out: permeability.
Data set [13] is described as follows: Half life in human liver microsomes. The format is ADME, Microsome. A general note: Liver microsomes are vesicles of endoplasmic reticulum, rich in cytochrome P450 enzymes.
A short description of data set [14]: Aqueous solubility of the compound in crystalline form. The format is physicochemical.
Data set [15] is described as follows: Fraction unbound in human plasma. It counts as ADME, cell-free.
Data set [16] deals with T1, Calcitonin gene-related peptide type 1 receptor. The experiment in a line: Antagonist activity at CGRP receptor in human SK-N-MC cells assessed as inhibition of CGRP-stimulated cAMP production preincubated for 15 mins prior to CGRP challenge measured after 30 mins by HTRF assay. The format is functional, cell-based.
Data set [17] is described as follows: Aqueous solubility of the compound in amorphous form. The format is physicochemical.

T1 sequence (Q16602 whole entry, one chain of several): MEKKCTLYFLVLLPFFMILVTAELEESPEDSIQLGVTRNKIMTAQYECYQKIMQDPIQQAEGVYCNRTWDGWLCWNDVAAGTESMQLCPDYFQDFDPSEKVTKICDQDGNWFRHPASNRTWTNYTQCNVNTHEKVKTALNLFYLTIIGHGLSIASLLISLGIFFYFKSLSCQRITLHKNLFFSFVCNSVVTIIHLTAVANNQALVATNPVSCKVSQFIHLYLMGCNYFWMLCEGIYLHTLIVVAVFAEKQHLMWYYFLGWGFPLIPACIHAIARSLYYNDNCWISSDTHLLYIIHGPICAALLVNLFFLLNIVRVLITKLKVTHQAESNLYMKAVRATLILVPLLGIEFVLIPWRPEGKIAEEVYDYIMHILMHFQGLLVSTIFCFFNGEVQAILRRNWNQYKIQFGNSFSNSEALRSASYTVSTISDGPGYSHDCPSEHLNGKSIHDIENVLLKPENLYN
Chain of Voltage-gated inwardly rectifying potassium channel KCNH2 (Q12809 whole entry): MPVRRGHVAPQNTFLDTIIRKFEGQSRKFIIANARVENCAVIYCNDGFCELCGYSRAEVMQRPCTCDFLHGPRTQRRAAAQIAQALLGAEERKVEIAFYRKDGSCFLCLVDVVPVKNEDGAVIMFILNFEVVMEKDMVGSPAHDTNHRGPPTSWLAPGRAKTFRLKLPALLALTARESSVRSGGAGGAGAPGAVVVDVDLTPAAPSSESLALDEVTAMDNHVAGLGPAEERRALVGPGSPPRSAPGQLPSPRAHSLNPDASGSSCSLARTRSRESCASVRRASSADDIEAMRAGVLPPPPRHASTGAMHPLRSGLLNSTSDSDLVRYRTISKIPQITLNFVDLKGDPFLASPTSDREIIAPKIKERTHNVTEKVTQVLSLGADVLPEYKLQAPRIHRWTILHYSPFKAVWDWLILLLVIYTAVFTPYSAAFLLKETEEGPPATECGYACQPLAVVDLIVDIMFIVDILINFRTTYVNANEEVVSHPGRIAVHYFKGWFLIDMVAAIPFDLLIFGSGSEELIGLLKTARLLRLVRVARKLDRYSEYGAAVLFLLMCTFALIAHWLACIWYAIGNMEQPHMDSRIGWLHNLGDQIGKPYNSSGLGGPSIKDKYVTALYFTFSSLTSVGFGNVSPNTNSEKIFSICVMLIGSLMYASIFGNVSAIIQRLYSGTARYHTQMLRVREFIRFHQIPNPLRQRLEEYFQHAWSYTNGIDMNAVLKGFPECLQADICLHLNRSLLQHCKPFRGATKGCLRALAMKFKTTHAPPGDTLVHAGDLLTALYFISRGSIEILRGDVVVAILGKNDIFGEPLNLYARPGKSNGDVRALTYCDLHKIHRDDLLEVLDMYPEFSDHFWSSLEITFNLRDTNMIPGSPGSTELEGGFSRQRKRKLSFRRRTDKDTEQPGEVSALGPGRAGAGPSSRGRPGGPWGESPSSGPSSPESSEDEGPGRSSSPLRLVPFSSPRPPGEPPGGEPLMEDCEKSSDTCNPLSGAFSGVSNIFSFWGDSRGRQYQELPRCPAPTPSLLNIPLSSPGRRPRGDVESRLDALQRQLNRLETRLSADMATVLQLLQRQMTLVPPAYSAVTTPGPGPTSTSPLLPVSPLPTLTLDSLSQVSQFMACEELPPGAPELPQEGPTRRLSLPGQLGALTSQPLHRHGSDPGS
Chain of Cytochrome P450 2D6 (P10635 whole entry): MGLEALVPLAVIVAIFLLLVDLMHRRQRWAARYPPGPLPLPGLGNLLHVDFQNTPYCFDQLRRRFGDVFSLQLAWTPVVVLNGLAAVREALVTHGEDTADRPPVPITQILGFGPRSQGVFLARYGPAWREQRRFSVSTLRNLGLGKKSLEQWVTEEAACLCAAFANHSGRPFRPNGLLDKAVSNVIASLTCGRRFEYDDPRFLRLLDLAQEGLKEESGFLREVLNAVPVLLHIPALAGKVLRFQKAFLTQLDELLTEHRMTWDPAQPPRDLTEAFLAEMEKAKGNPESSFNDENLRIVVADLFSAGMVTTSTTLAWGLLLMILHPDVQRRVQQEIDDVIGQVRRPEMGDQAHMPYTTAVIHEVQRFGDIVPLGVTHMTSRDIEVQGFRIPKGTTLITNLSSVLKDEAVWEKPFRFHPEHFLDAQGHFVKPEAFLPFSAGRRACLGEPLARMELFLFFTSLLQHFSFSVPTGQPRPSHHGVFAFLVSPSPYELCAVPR
Chain of Cytochrome P450 2C19 (P33261 whole entry): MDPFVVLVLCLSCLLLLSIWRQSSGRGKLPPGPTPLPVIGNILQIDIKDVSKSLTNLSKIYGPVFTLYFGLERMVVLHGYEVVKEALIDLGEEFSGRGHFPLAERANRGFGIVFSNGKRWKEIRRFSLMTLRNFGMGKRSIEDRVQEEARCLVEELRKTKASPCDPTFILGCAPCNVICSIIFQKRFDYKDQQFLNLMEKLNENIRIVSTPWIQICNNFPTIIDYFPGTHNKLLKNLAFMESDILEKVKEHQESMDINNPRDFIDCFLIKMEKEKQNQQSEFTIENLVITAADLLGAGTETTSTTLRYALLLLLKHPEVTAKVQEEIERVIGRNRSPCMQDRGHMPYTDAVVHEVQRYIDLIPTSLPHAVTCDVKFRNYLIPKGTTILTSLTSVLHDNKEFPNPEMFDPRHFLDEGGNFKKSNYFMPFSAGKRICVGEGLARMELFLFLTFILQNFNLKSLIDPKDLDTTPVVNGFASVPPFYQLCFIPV
Chain of Cytochrome P450 2E1 (P05181 whole entry): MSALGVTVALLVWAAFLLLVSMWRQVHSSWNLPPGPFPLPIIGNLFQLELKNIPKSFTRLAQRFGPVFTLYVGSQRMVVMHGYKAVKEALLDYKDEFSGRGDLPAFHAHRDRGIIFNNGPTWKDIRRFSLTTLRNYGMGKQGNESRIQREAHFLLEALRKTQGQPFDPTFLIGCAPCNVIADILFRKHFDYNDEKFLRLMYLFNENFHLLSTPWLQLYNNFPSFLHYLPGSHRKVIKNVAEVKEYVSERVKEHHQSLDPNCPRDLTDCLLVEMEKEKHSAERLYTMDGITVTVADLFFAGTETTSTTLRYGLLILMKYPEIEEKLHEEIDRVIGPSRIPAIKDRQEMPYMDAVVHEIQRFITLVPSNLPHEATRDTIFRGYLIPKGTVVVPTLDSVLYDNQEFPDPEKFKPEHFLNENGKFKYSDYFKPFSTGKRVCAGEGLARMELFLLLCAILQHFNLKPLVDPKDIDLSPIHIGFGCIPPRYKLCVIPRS
Chain of Cytochrome P450 2C9 (P11712 whole entry): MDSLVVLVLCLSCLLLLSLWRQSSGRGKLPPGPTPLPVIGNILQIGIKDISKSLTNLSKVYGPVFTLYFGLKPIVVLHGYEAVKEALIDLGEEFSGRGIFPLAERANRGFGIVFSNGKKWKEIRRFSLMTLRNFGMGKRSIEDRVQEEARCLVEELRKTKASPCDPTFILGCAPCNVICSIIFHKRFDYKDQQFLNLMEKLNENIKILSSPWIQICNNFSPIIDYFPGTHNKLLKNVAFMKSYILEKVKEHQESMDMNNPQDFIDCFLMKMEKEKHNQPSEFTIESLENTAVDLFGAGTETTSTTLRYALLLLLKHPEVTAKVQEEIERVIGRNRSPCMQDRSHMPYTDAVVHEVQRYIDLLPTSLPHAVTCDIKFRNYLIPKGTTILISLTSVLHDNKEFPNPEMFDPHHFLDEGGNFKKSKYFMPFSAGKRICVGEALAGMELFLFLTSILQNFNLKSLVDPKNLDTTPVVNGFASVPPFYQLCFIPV

For the molecule `O=C(O[C@@H]1CC[C@@H](c2cccc(F)c2F)[C@@H](O)c2cccnc21)N1CCC(n2c(=O)[nH]c3ncccc32)CC1`, the Ki in data set [1] is 4.3 nM.

For the molecule `O=C(O[C@@H]1CC[C@H](c2cccc(F)c2F)[C@H](O)c2cccnc21)N1CCC(n2c(=O)[nH]c3ncccc32)CC1` (mixture of isomers), in data set [1], the Ki was found to be 0.67 nM.

As for `N[C@@H]1c2cccnc2[C@H](OC(=O)N2CCC(n3c(=O)[nH]c4ncccc43)CC2)CC[C@H]1c1cccc(F)c1F` [RIMEGEPANT], the Activity result in the data set filed under Homo sapiens and in the data set on Salmonella typhimurium was “Non-toxic” in each case. Further, the “inhibition (INH)” value in [2] is “Not Active”; in data set [3], < 30%. In addition, the inhibition result with HEK293 is “inactive”. Moreover, the IC50 on Cytochrome P450 2E1, at Cytochrome P450 2B6, on Cytochrome P450 2A6, at Cytochrome P450 2D6, at Cytochrome P450 2C9 and at Cytochrome P450 2C19 was ≥ 20000 nM throughout. Also, the IC50 on Cytochrome P450 1A2 is ≥ 20000 nM. Also, the bioavailability in data set [4] turned out to be 48%; in [5], 67%; in [6] it was 45%. For the same molecule, the concentration in data set [7] is < 800 nM. The concentration at 0.25 h in [8] stood at 400 nM. Besides, the figures for the inhibition in vivo at 7 mg/kg with Callithrix jacchus [9] and in the data set with Callithrix jacchus [10] were > 65% and 75%, respectively. In addition, the Papp at 4 h, 100 µM in data set [11] worked out at 32 ×10⁻⁶ cm/s; in data set [12], 19 ×10⁻⁶ cm/s. The molecule further came in with a half-life in data set [13] of 1.38 h. Moreover, in [14], the solubility turned out to be 50 µg/mL (≈ 93.5 µM). This molecule returned a free fraction (fraction unbound) in [15] of 0.069. For the same molecule, the 50% effective concentration (EC50) in [16] was determined as 0.14 nM. For the same molecule, the Ki in [1] was 0.027 nM.

In the case of `O=C(O[C@@H]1CC[C@@H](c2cccc(F)c2F)[C@H](O)c2cccnc21)N1CCC(n2c(=O)[nH]c3ncccc32)CC1`, the concentration in solution in data set [17] (solubility) came to 66 µg/mL (≈ 123 µM). The same molecule came in with a half-life in [13] of 1.17 h. Also, the fraction unbound in data set [15] was found to be 0.041. In data set [1], the Ki amounted to 0.081 nM.

As to `[N-]=[N+]=N[C@@H]1c2cccnc2[C@H](OC(=O)N2CCC(n3c(=O)[nH]c4ncccc43)CC2)CC[C@H]1c1cccc(F)c1F`, the Ki in data set [1] was 0.066 nM.
